From patent US20110256557A1, “IDENTIFYING PARATHYROID HORMONE AGONISTS AND ANTAGONISTS” (DISCOVERYBIOMED, INC., priority 2008, published 2011)

Key:
[1] = test system: TCF/LEF luciferase reporter; experiment: High-throughput screen validation, TCF/LEF luciferase reporter in osteosarcoma cell line; type: cell-based
Protocol: Osteosarcoma cells were plated in a 96 well plate. The cells were transiently transfected with the TCF/LEF luciferase reporter using LipofectAMINE PLUS (Invitrogen; Carlsbad, Calif.). The cells were incubated overnight at 37° C. in OptiMEM-1 serum-free medium with the transfection reagents. The cells were washed and serum-containing medium was added to the cells for 8 hours. The serum-containing medium was replaced with serum-free medium and the cells were stimulated overnight with PTH and WNT3a. Supernatant from the stimulated cells was collected for detection of osteosclerostin, and the cells were subjected to a luciferase assay as previously described (Wan et al., Am. J. Pathol. 166:1379-92 (2005)).
To determine agonists and antagonists of the additive signaling of the PTH receptor and the WNT receptor, (as well as any co-receptors) in bone cells, a high-throughput screen is designed. […] An osteosarcoma cell line is transiently transfected with a TCF/LEF luciferase reporter. The cells are treated with WNT3a and PTH and luciferase activity is determined (FIG. 46).

[2] = test system: luciferase reporter bearing TCF/LEF binding elements; experiment: TCF/LEF luciferase reporter assay in UMR-106 cells; type: cell-based, rat; conditions: UMR-106 cells, agent alone
Summary of the method: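 UMR-106 cells in DMEM with 10% FCS, transfected with 0.3 μg TCF-Luc reporter plus 50 ng Renilla luciferase as internal control per well. […]. Triplicates, repeated at least three times.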

Xenopus = experiment: LRP6-mediated secondary axis induction in Xenopus embryos; type: in vivo; conditions: ventral injection of PTH and PTH1R RNA with LRP6 RNA
Excerpt: RNAs for microinjection were synthesized using SP6 mMessage mMachine in vitro transcription kit (Ambion; Austin, Tex.). […] The doses of RNAs used were: 200 pg LRP6, 2 pg PTH and 50 pg PTH1R.

LRP6 = LRP6 phosphorylation at PPPSP motifs, western blotting with Ab1490, UMR-106 cells; type: cell-based, rat; conditions: UMR-106 cells, endogenous LRP6, Ab1490
Protocol: (§1) Cells were harvested in cavitation buffer (5 mM HEPES, pH 7.4, 3 mM MgCl2, 1 mM EGTA, 250 mM sucrose) containing protease and phosphatase inhibitors and homogenized by nitrogen cavitation (200 p.s.i., for 5 minutes) in a cell disruption bomb (Parr Instrument Co.; Moline, Ill.). The cell homogenate was centrifuged twice at 700 g for 10 minutes to pellet the nuclei. The supernatant was further centrifuged at 100,000 g (Beckman SW50.1 rotor) for 1 hour to separate the membrane and cytosol fractions, and the resulting membrane pellet was washed three times with cavitation buffer before use in the assays (Zhang et al., Biochem. J. 343:541-9 (1999)). Immunoprecipitation and Western blot analysis of cell lysates were performed as described previously (Wan et al., Am. J. Pathol. 166:1379-92 (2005)).
As phosphorylation of LRP6 at the PPPSP motifs plays a crucial role in activating downstream β-catenin signaling by Wnt, whether PTH induces phosphorylation of LRP6 at PPPSP motifs (Mao et al., Mol. Cell. 7:801-9 (2001); Tamai et al., Mol. Cell. 13:149-56 (2004); Davidson et al., Nature 438:867-72 (2005); Zeng et al., Nature 438:873-7 (2005)). Immunoprecipitated LRP6 from extracts of PTH-treated UMR-106 cells were monitored for their phosphorylation, by western blotting, with an antibody that recognizes phosphorylated PPPSP motifs (Ab1490) (Tamai et al., Mol. Cell. 13:149-56 (2004)). […] Phosphorylation of PPPSP motifs is required for axin recruitment from cytoplasm to LRP6 at cell membrane. […] Fz8CRD, a competitive inhibitor of the Wnt receptor Fz (Hsieh et al., Proc. Natl. Acad. Sci. USA 96:3546-55 (1999)), was used to exclude the possibility that these PTH effects are mediated through promotion of Wnts production or sensitization of Wnt-stimulated signaling. […] In contrast, LRP6N blocked PTH-stimulated LRP6 phosphorylation (FIG. 33).

β-catenin = experiment: Western blot of cytosolic β-catenin in mouse calvarial primary preosteoblasts; type: cell-based; conditions: concentration- and time-dependent
Protocol: (§2) Osteoblasts were isolated by digestion of calvaria of newborn mice as described (Wang et al., J. Clin. Invest. 117:1616-26 (2007)). Briefly, calvaria were incubated with 10 ml of digestion solution containing 1.8 mg/ml of collagenase type I (Worthington Biochemical Corp.; Lakewood, N.J.) for 15 minutes at 37° C. under constant agitation. The supernatant was then harvested, replaced with fresh collagenase and the digestion repeated an additional 4 times. Digestion solutions containing the osteoblasts were pooled together. After centrifugation, osteoblasts were obtained and cultured in α-Minimal Essential Media (MEM) containing 10% FBS and 1% penicillin/streptomycin at 37° C. in a humidified incubator supplied with 5% CO2.
as §1, with “Immunoprecipitation and Western blot analysis of cell lysates were performed as described previously (Wan et al., Am. J. Pathol. 166:1379-92 (2005)).” left out

axin-LRP6 binding = experiment: Co-IP of axin binding to LRP6 in HEK293 cells; type: cell-based; conditions: co-IP, HEK293 cells
Protocol: as §1

axin1 = experiment: Axin1 recruitment to cell membrane, cell fractionation assay in mouse primary preosteoblasts; type: cell-based
Protocol: as §2
as §1, with “Immunoprecipitation and Western blot analysis of cell lysates were performed as described previously (Wan et al., Am. J. Pathol. 166:1379-92 (2005)).” left out

Parathyroid hormone [PTH] was tested, and the “stimulation of the TCF/LEF luciferase reporter, treatment alone” value ([1]; 96-well plate) was “does not stimulate”, the “effect on WNT stimulation of the TCF/LEF luciferase reporter” value ([1]; PTH and WNT3a treatment) was “potentiates” and the “transcription of a luciferase reporter bearing TCF/LEF binding elements” value [2] was “stimulated”. The “LRP6-induced secondary axis induction” value (Xenopus) was “enhanced”, the “phosphorylation of LRP6 at the PPPSP motifs” value (LRP6) was “rapidly induced” and the “levels of β-catenin in the cytosol” value (β-catenin) was “enhanced”. The “binding of axin to LRP6” value (axin-LRP6 binding) was “rapidly increased” and the “axin1 level on cell membrane” value (axin1) was “increased”.
